Reference: PMC6838110 (Nature Communications, 2019)

Columns and labels:
NCI-H1299 cells = test: Colony formation assay with ionizing radiation; format: cell-based, human; details: for DEF37 Mean / DEF37 n1 / DEF37 n2: NCI-H1299
Experimental: (§1) page 32: […] Plates were then washed 2x with PBS, incubated with 20 µL of antibody solution containing […] incubated at RT for 2 hours. Plates were washed 3x with PBS before imaging on the CV7000 high-content imaging platform (Yokogawa). Following image acquisition, images were exported to the ColumbusTM image data storage and analysis system (Perkin Elmer). Optimized image algorithms were used to evaluate phenotypic response s using nuclear staining with Hoechst (cell cycle, micronuclei, nuclear fragmentation ), as well as to quantify the response of DNA damage response markers (foci numbers and total signal […] SDS-PAGE and Western blotting of samples Protein lysates were generated by scraping cells in radioimmunoprecipitation assay […] and protease and phosphatase inhibitor tablets (Roche) following compound treatments at indicated time points. Protein concentration was determined using the BCA protein assay kit (ThermoFisher). Proteins were separated by SDS -PAGE on NuPAGE® 4-12% […] membranes using the iBlot ® dry blotting system (ThermoFisher). Membranes were […] and incubated with primary antibody overnight at 4°C. Membranes were then washed with TBS-T and incubated with HRP-conjugated anti-rabbit or anti-mouse antibodies for 1 hour at RT. Proteins were detected by incubating membranes with SuperSignalTM Dura extended-duration substrate (ThermoFisher) and visualiz ed using the G:BOX ChemiGenius imaging system (Syngene). Band intensities were quantified using Syngene Genetools software. For analysis o f in vivo samples, a two-sided t-test was performed on logged data assuming unequal variance. A list of all antibodies used in this study can be found in Supplementary Table 5. Colony formation assay Cells were plated at low density into six-well plates in 3 mL medium (500 cells for A549, NCI-H1299 and FaDu WT, 4000 cells for FaDu ATM […]) and incubated overnight. Cell plating numbers were adjusted for higher IR doses to compensate for cell kill. […] Cell colonies were washed with […] acetic acid for >10 minutes. Excess stain was removed by washing with water. Surviving colonies (>50 cells) were counted using the GelCountTM colony counter (Oxford Optronix). Mean surviving colonies were calculated from three technical replicates. […] fraction. […] 33

A549 cells = test: Colony formation assay with ionizing radiation; format: cell-based, human
Experimental: as §1

[1] = test system: BT474 breast cancer xenografts; test: Xenograft efficacy study with liposomal doxorubicin; format: in vivo, mice; details: AZD7648 37.5 mg kg−1 bid × 28 days, single agent
Experimental: (§2) Immunocompromised SCID (C.B-17/IcrHan®Hsd-Prkdc^scid) or Hsd:Athymic Nude-Foxn1^nu female mice (Envigo) were used for tumour implantation. […] When dosed twice daily, the time between the morning and evening doses was 8 h. Targeted irradiation of 2 Gy was delivered over 2 min daily over the first 5 days of treatment. Liposomal doxorubicin (Doxoves) was diluted in physiological saline and intravenously dosed at 2.5 or 5 mg kg^−1 once per week. Olaparib was formulated in 10% DMSO/30% Kleptose and orally dosed at 100 mg kg^−1 once daily. […] Statistical significance was evaluated using a one-tailed t-test. All in vivo studies complied with all relevant ethical regulations for animal testing and research, followed AstraZeneca’s global bioethics policy and received ethical approval from the AstraZeneca ethical committee. HBCx-17 PDX study was carried out at XenTech, France in accordance with French regulatory legislation concerning the protection of laboratory animals. CTG-703, CTG-0828 and CTG-0149 PDX studies were carried out at Champions Oncology, Inc., USA in accordance to the guidelines of the Institutional Animal Care and Use Committee (IACUC) of Champions Oncology and the USA regulatory legislation. […]
Tumours were measured (length x width) by bilateral Vernier calliper measurements and tumour volume calculated using Mousetrap software. […]

[2] = test system: FaDu ATM KO xenograft model; test: Pharmacodynamic biomarkers by western blot; format: in vivo, mice; details: 30 min after 75 mg kg−1 dose of AZD7648
Source text: (1 picture or pasted object on this page, not shown here)
(§3) treatment groups when mean tumour volume reached ~0.2 cm 3.

HBCx-17 TNBC PDX = test: PDX efficacy study; format: in vivo, mice
Experimental: as §2, with “legislation. CDX and OV2022 PDX studies were conducted in the UK in accordance with UK Home Office legislation, the Animal Scientific Procedures Act 1986 and the Home Office project licences 70/8839, 70/8894 and P0EC1FFDF.” for “legislation.”
SCID mice were surgically implanted subcutaneously with tumour fragments from donor mice. Tumours were measured (length x width) by bilateral Vernier calliper measurements and tumour volume calculated using Mousetrap software. Mice were randomized into […]
as §3

## Cc1cc2ncnn2cc1Nc1ncc2c(n1)n(C1CCOCC1)c(=O)n2C [AZD7648]
NCI-H1299 cells; H1299, AZD7648 1 μM + IR (Fig. 1e)
  Mean DEF37: 7.4
NCI-H1299 cells; AZD7648 0.025 μM + IR
  DEF37 Mean: 1.3
  DEF37 n1: 1.2
  DEF37 n2: 1.3
NCI-H1299 cells; AZD7648 0.1 μM + IR
  DEF37 Mean: 2.5
  DEF37 n1: 2.9
NCI-H1299 cells; AZD7648 1.21 μM + IR
  DEF37 Mean: 7.4
  DEF37 n1: 7.9
  DEF37 n2: 7.0
A549 cells; AZD7648 0.025 μM + IR
  DEF37 Mean: 1.2
  DEF37 n1: 1.3
  DEF37 n2: 1.2
A549 cells; AZD7648 0.1 μM + IR
  DEF37 Mean: 1.7
  DEF37 n1: 1.4
  DEF37 n2: 1.9
A549 cells; AZD7648 1 μM + IR (Fig. 1e)
  Mean DEF37: 5.1
A549 cells; AZD7648 1.21 μM + IR
  DEF37 Mean: 5.1
  DEF37 n1: 3.2
  DEF37 n2: 7.0
[1]
  TGI: 20%
[2]
  reduction of pDNA-PKcs Ser2056, γH2AX and pRPA32 Ser4/Ser8: ~ 80%
HBCx-17 TNBC PDX; AZD7648 75 mg kg−1 bid single agent (olaparib study)
  TGI: 65%
HBCx-17 TNBC PDX; AZD7648 single agent (doxorubicin study)
  TGI: 25%
